Test results reported in patent US10376476B2, “Panicein compounds, compositions and uses thereof” (CENTRE NATIONAL DE LA RECHERCHE SCIENTIFIQUE, priority 2014, dated 2019).

Assays:
keratinocytes HaCaT = assay: Doxorubicin efflux from cells (intracellular dxr fluorescence); format: cell-based
A375 cells = assay: Doxorubicin efflux from melanoma cells (intracellular dxr fluorescence); format: cell-based, human; details: A375, loaded with 10 μM dxr, 10 μM compound, 30 min efflux
Method: (§1) A. Compound P5 inhibits doxorubicin efflux from melanoma cells MeWo and A375. Cells were grown on cover-slips, incubated for 2 hour at 37° C. with 10 μM doxorubicin and quickly rinsed with phosphate buffer (pH 7.4). One cover-slip of each cell line was immediately fixed for doxorubicin charge control. The other cover-slips were incubated with buffer supplemented with DMSO or 10 μM of compound P5 30 min under gentle shaking and immediately fixed. Dxr intracellular fluorescence was visualized by epifluorescence and analyzed using Image J software on more than 30 cells of 3 different fields for each condition. The results were analyzed using the Student t test in which significance is attained at P<0.05 (**: P<0.005, ***: P<0.0005). […] Dxr intracellular fluorescence quantification was carried out using Image J software on more than 30 yeasts on 3 different fields for each condition. The results were analyzed using the Student t test in which significance is attained at P<0.05 (*).
(§2) On melanoma cells: For doxorubicin incorporation in melanoma cells, the protocol was adapted from Bidet et al. (2012). […] Quantification of doxorubicin intracellular fluorescence was carried out using Image J software on more than 30 cells of 3 different fields for each condition. The results were analyzed using the Student t test in which significance is attained at P<0.05.

MeWo cells = assay: as above; format: cell-based, human; details: loaded with 10 μM dxr, 10 μM compound, 30 min efflux
Method: as §1, §2

[1] = tested on: Patched protein in MEWO and A375 cells; assay: Western blotting of Patched after panicein treatment; format: cell-based, human; details: 24 hours, 10 μM
Method: Western-blotting on total extracts from MEWO and A375 cells after 24 h treatment with 10 μM of panicein A hydroquinone (P5) or with DMSO.
Total extracts from melanoma cells were prepared. Samples were separated on 8% SDS-PAGE and transferred to nitrocellulose membranes (Amersham) using standard techniques. After 1 hour at room temperature in blocking buffer (20 mmol/L Tris-HCl pH 7.5, 450 mmol/L NaCl, 0.1% Tween-20, and 4% non-fat milk), nitrocellulose membranes were incubated overnight at 4° C. with rabbit anti-Patched antiserum (Ab130.6 1:1000 generous gift from M. Ruat or Ab39266 from Abcam 1/1000) and monoclonal mouse anti-βtubulin antibody (Sigma; 1/1000). After 3 washes, membranes were incubated 45 min with anti-mouse (1:5000) or anti-rabbit (1:3000) immunoglobulin coupled to horseradish peroxidase (Dako). Detection was carried out with an ECL kit (Millipore) on a Las3000 (Fuji).

melanoma cells = assay: Apoptosis by AnnexinV and DAPI co-staining; format: cell-based, human
Method: Cells were sampled after 24 h treatment with DMSO, paniceins and/or dxr, and apoptosis determined via AnnexinV and DAPI co-staining. Cells in early apoptosis are AnnexinV positive and DAPI negative, and cells in late apoptosis are AnnexinV and DAPI double positive. Histograms represent the mean percentage (+/−SEM) of cells in late apoptosis from three independent experiments and were analyzed using the Student t-test in which significance is attained at P<0.05 (*) (**: P<0.005).

A375 melanoma cells = assay: Vemurafenib cytotoxicity, viability test using neutral red; format: cell-based, human; details: A375, 10 μM panicein A hydroquinone

## COc1cc(C)c(CC/C(C)=C/Cc2cc(O)ccc2O)c(C)c1C [P5, Panicein A hydroquinone]
Keratinocytes HaCaT
  increase of dxr in cells (dxr fluorescence intensity) after efflux: contrary to “healthy” keratinocytes HaCaT
A375 cells
  increase of dxr in cells (dxr fluorescence intensity) after efflux: about 25%
MeWo cells
  increase of dxr in cells (dxr fluorescence intensity) after efflux: about 25%
[1]
  effect on Patched expression or degradation: no effect
Melanoma cells; 24 h treatment with paniceins and/or dxr
  early apoptosis (Annexin V and DAPI labeling): increases early apoptosis
Melanoma cells; 24 h treatment, AnnexinV and DAPI co-staining
  number of apoptotic melanoma cells: strongly increases
A375 melanoma cells
  increase of vemurafenib cytotoxicity: strongly increases
